Source: US12686680B2, “Substituted pyrazolo[1,5-α]pyrimidines as CRF receptor antagonists” (Neurocrine Biosciences, Inc., priority 2019, dated 2026)
Counter-ions that a name gives are not always drawn. Each block holds one compound with its values, some of them ahead of it.

Experiments:
[1] = Solubility determination of solid forms of Compound 1 in solvents (Example 52); type: physicochemical
Description: X-Ray Powder diffraction (XRPD), differential scanning calorimetry (DSC), thermal gravimetric analysis (TGA), and UV-Metric/pH-Metric Titration (SiriusT3) were used to characterize Form I of Compound 1. UPLC was used to evaluate solubility of each material in various vehicles.

[2] = target: T1, CRF1 receptor (Homo sapiens, UniProt P34998); assay: CRF1 receptor binding kinetics (association/dissociation rate constants, method of Fleck et al.); settings: for Ki: Ki=k−1/k1, read-out: Kinetic Ki; for k1: association rate constant; for k^−1: dissociation rate constant
T1 sequence (P34998 24-415): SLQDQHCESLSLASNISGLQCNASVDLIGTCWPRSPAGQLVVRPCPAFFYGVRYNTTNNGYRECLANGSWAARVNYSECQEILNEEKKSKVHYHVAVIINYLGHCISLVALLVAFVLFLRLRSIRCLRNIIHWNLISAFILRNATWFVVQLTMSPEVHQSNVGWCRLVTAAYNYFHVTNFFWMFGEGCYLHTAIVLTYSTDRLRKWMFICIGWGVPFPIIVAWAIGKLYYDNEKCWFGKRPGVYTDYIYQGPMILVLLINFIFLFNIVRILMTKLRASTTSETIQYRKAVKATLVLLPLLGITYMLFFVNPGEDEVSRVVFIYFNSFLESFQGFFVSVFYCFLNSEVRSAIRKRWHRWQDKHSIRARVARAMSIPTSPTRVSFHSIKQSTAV
Procedure: The association (k1) and dissociation (k−1) rate constants defining binding of the Compounds to the CRF1 receptor were determined by the method described in Fleck et al. (J. Pharmacology and Experimental Therapeutics, 341(2):518-531, 2012) (hereinafter “Fleck et al.” and incorporated by reference in its entirety). As described therein, the activity of a CRF1 receptor antagonist can be expressed as the kinetically derived affinity (Ki) calculated from the association (k1) and dissociation (k−1) rate constants by the following equation: Ki=k−1/k1
The Compounds listed in Table 5 were evaluated according to these procedures, and the kinetic Ki was determined and found to be as follows: […]

[3] = Solubility determination of Compound 1 Form I in various vehicles (Example 60); type: physicochemical
Procedure: The solubility of Compound 1 Form I was evaluated in various vehicles in an attempt to achieve doses of 0.5 mg/mL (IV) and 1.0 mg/mL (PO). […] Vortex mixing and sonication were used to dissolve particles, then samples were transferred to 0.22 μm nylon centrifuge tube filters and centrifuged for approximately 2 minutes @10,000 rpm. All samples were diluted with the method diluent (if necessary) and analyzed by HPLC providing the results shown in the below Table.

Measured pH ([1]; 50 mM BB pH 9): pH 8.7
Solubility ([1]; 50 mM BB pH 9): Below
Measured pH ([1]; 50 mM CB pH 3): pH 3.2
Solubility ([1]; 50 mM CB pH 3): 0.8 mg/mL FB
Measured pH ([1]; 50 mM CB pH 4): pH 3.9
Solubility ([1]; 50 mM CB pH 4): 0 mg/mL FB
Measured pH ([1]; 50 mM CB pH 6): pH 5.8
Solubility ([1]; 50 mM CB pH 6): 0 mg/mL FB
Measured pH ([1]; 50 mM PB pH 2): pH 2.9
Solubility ([1]; 50 mM PB pH 2): 4.4 mg/mL FB
Measured pH ([1]; 50 mM PB pH 8): pH 7.5
Solubility ([1]; 50 mM PB pH 8): 0 mg/mL FB
Measured pH ([1]; 100% H2O): pH 3.3
Solubility ([1]; 100% H2O): 0.4 mg/mL FB
Solubility ([1]; ACN): 0.7 mg/mL FB
Solubility ([1]; Acetone): 0.4 mg/mL FB
Solubility ([1]; DMSO): 0.9 mg/mL FB
Solubility ([1]; EtOAc): 0.1 mg/mL FB
Solubility ([1]; EtOH): 5.3 mg/mL FB
Solubility ([1]; IPA): 0.8 mg/mL FB
Solubility ([1]; MeOH): 32.3 mg/mL FB
SMILES: CCCN(Cc1ccc(-c2csc(N(C)C)n2)cc1)c1cc(C)nc2c(-c3cnc(N(C)C)cc3C)c(C)nn12 [Compound 1-3 (HCl), 5-{7-[({4-[2-(dimethylamino)-1,3-thiazol-4-yl]phenyl}methyl)(propyl)amino]-2,5-dimethylpyrazolo[1,5-a]pyrimidin-3-yl}-N,N,4-trimethylpyridin-2-amine]

Solubility ([1]; 50 mM CB pH 3): 1.7 mg/mL FB
Measured pH ([1]; 50 mM CB pH 4): pH 4.1
Solubility ([1]; 50 mM CB pH 4): 0 mg/mL FB
Measured pH ([1]; 50 mM CB pH 5): pH 4.4
Solubility ([1]; 50 mM CB pH 5): 0 mg/mL FB
Measured pH ([1]; 50 mM CB pH 6): pH 6.1
Solubility ([1]; 50 mM CB pH 6): 0 mg/mL FB
Solubility ([1]; 50 mM PB pH 1): 14.9 mg/mL FB
Measured pH ([1]; 50 mM PB pH 2): pH 2.7
Solubility ([1]; 50 mM PB pH 2): 6.5 mg/mL FB
Measured pH ([1]; 50 mM PB pH 7): pH 7.0
Solubility ([1]; 50 mM PB pH 7): 0 mg/mL FB
Measured pH ([1]; 100% H2O): pH 6.7
Solubility ([1]; 100% H2O): 0 mg/mL FB
SMILES: CCCN(Cc1ccc(-c2csc(N(C)C)n2)cc1)c1cc(C)nc2c(-c3cnc(N(C)C)cc3C)c(C)nn12 [Compound 1-1 (FB), 5-{7-[({4-[2-(dimethylamino)-1,3-thiazol-4-yl]phenyl}methyl)(propyl)amino]-2,5-dimethylpyrazolo[1,5-a]pyrimidin-3-yl}-N,N,4-trimethylpyridin-2-amine]

Ki [2]: 0.95 nM
k1 [2]: 2.2 10^6M^−1min^−1
k^−1 [2]: 0.0021 min⁻¹
SMILES: CCCN(Cc1ccc(-n2cncn2)cc1)c1cc(C)nc2c(-c3cnc(N(C)C)cc3C)c(C)nn12 [Compound 10, 5-{2,5-dimethyl-7-[propyl({[4-(1H-1,2,4-triazol-1-yl)phenyl]methyl})amino]pyrazolo[1,5-a]pyrimidin-3-yl}-N,N,4-trimethylpyridin-2-amine]

Final/Actual pH ([3]; 50 mM Citrate, pH 2): 3.1
Solubility <USP 34> ([3]; 50 mM Citrate, pH 2): Slightly Soluble
[Compound 1] ([3]; 50 mM Citrate, pH 2): 3.3 mg/mL
Final/Actual pH ([3]; 50 mM Citrate, pH 3): 3.3
Solubility <USP 34> ([3]; 50 mM Citrate, pH 3): Slightly Soluble
[Compound 1] ([3]; 50 mM Citrate, pH 3): 1.7 mg/mL
Final/Actual pH ([3]; 50 mM Citrate, pH 4): 4.1
Solubility <USP 34> ([3]; 50 mM Citrate, pH 4): Practically
[Compound 1] ([3]; 50 mM Citrate, pH 4): ~0 mg/mL
Final/Actual pH ([3]; 50 mM Citrate, pH 5): 5.0
Solubility <USP 34> ([3]; 50 mM Citrate, pH 5): Practically
[Compound 1] ([3]; 50 mM Citrate, pH 5): ~0 mg/mL
Final/Actual pH ([3]; 50 mM Citrate, pH 6): 6.1
Solubility <USP 34> ([3]; 50 mM Citrate, pH 6): Practically
[Compound 1] ([3]; 50 mM Citrate, pH 6): ~0 mg/mL
Final/Actual pH ([3]; 50 mM Citrate, pH 7): 7.1
Solubility <USP 34> ([3]; 50 mM Citrate, pH 7): Practically
[Compound 1] ([3]; 50 mM Citrate, pH 7): ~0 mg/mL
Final/Actual pH ([3]; 50 mM Phosphate, pH 8): 8.1
Solubility <USP 34> ([3]; 50 mM Phosphate, pH 8): Practically
[Compound 1] ([3]; 50 mM Phosphate, pH 8): Below
Final/Actual pH ([3]; 1% Poloxamer 188 in Water): 8.0
Solubility <USP 34> ([3]; 1% Poloxamer 188 in Water): Practically
[Compound 1] ([3]; 1% Poloxamer 188 in Water): ~0 mg/mL
Final/Actual pH ([3]; 1% TW80 in Water): 7.6
Solubility <USP 34> ([3]; 1% TW80 in Water): Practically
[Compound 1] ([3]; 1% TW80 in Water): ~0 mg/mL
Final/Actual pH ([3]; 10% HP-β-CD in Water): 8.2
Solubility <USP 34> ([3]; 10% HP-β-CD in Water): Practically
[Compound 1] ([3]; 10% HP-β-CD in Water): ~0 mg/mL
Final/Actual pH ([3]; 100% Water): 8.3
Solubility <USP 34> ([3]; 100% Water): Practically
[Compound 1] ([3]; 100% Water): ~0 mg/mL
SMILES: CCCN(Cc1ccc(-c2csc(N(C)C)n2)cc1)c1cc(C)nc2c(-c3cnc(N(C)C)cc3C)c(C)nn12 [Compound 1 Form I, 5-{7-[({4-[2-(dimethylamino)-1,3-thiazol-4-yl]phenyl}methyl)(propyl)amino]-2,5-dimethylpyrazolo[1,5-a]pyrimidin-3-yl}-N,N,4-trimethylpyridin-2-amine]

Ki [2]: < 0.29 nM
k1 [2]: 3.5 ± 1.1 10^6M^−1min^−1
k^−1 [2]: <0.001 min⁻¹
SMILES: CCCN(Cc1ccc(-n2cccn2)cc1)c1cc(C)nc2c(-c3cnc(N(C)C)cc3C)c(C)nn12 [Compound 9, 5-{2,5-dimethyl-7-[propyl({[4-(1H-pyrazol-1-yl)phenyl]methyl})amino]pyrazolo[1,5-a]pyrimidin-3-yl}-N,N,4-trimethylpyridin-2-amine]
